According to ChEMBL document CHEMBL1150883, “Antitumor-promoting naphthoquinones from Catalpa ovata” (J Nat Prod, 1998):

Tests used:
Format in all cases: cell-based
[1] = test system: Raji; test: Inhibition of 12-O-tetradecanoylphorbol-13-acetate induced EBV-early antigen activation in human Raji cells at 10 molar ratio per 32 pmol/ml TPA by immunofluorescence technique relative to control; set-up: Activity: scale not given: the % may be the effect or the level left; details: human gammaherpesvirus 4
[2] = test system: Raji; test: Inhibition of 12-O-tetradecanoylphorbol-13-acetate induced EBV-early antigen activation in human Raji cells at 1000 molar ratio per 32 pmol/ml TPA by immunofluorescence technique relative to control; set-up: scale not given: the % may be the effect or the level left; details: human gammaherpesvirus 4
[3] = Cytotoxicity against human Raji cells assessed as cell viability at 1000 molar ratio after 48 hrs; details: read-out: Activity
[4] = Cytotoxicity against human Raji cells assessed as cell viability at 500 molar ratio after 48 hrs; details: read-out: Activity

SMILES	EBV-EA activation remaining (% of TPA control) [1] [%]	Activity [2] [%]	viability at 48 h, 1000 molar ratio [3] [%]	viability at 48 h, 500 molar ratio [4] [%]	Activity [1] [%]
CC1(C)C[C@H](O)C2=C(O1)C(=O)c1ccccc1C2=O	86.7	11.2	60	–	–
CC1(C)C[C@H](O)C2=C(O1)C(=O)c1c(O)cccc1C2=O	100	36.1	60	–	–
CC1=C(/C=C/C(C)=C/C=C/C(C)=C/C=C/C=C(C)/C=C/C=C(C)/C=C/C2=C(C)CCCC2(C)C)C(C)(C)CCC1 [BETA CAROTENE]	100	8.6	70	–	–
C=C(C)[C@@H]1OC2=C(C(=O)c3ccccc3C2=O)[C@@H]1O	88.5	0	30	60	–
C=C(C)[C@H]1CC2=C(O1)C(=O)c1c(OC)cccc1C2=O	–	0	60	–	100
CC1(C)C[C@H](O)[C@H]2C(=O)c3ccccc3[C@@H](O)[C@@H]2O1	93.8	0	70	–	–
COc1cccc2c1C(=O)C1=C(CCC(C)(C)O1)C2=O	100	83.8	70	–	–
CC1(C)CC=C(C2OC(=O)c3ccccc32)C(=O)O1 (stereo not drawn) [CATALPALACTONE]	89.5	0	70	–	–
COc1cccc2c1C(=O)C1=C(C(=O)CC(C)(C)O1)C2=O	100	32.7	70	–	–
